Test results published in US5928896A, “Polypeptides that include conformation-constraining groups which flank a protein--protein interaction site” (Virginia Commonwealth University, priority 1997, dated 1999).
Where a SMILES comes first, the peptide text is derived from it.

Tests used:
[1] = test system: receptors of sweet tasting papillae; settings: comparison; cited from earlier work
[2] = Preliminary studies of hypotensive peptide versus diltiazem (diastolic pressure, arrhythmia); assay type: in vivo, rat
Method: Dose: 60 to 120 μg per rat (5 to 10 μM).

Structure (SMILES) | Sweetness relative to sugar [1] | Effect on diastolic pressure [2]
COC(=O)[C@H](Cc1ccccc1)NC(=O)[C@@H](N)CC(=O)O [aspartame] (H-Asp-Phe-OMe) | 160 times sweeter than sugar | –
COc1ccc([C@@H]2Sc3ccccc3N(CCN(C)C)C(=O)[C@@H]2OC(C)=O)cc1 [diltiazem] | – | small increase in the diastolic pressure
